Experimental data published in patent publication US20240226115A1, “AXL INHIBITOR COMPOUNDS” (ARCUS BIOSCIENCES, INC., priority 2021, published 2024).

Molecular target: T1, Axl (Homo sapiens, UniProt P30530)
T1 sequence (P30530 26-894): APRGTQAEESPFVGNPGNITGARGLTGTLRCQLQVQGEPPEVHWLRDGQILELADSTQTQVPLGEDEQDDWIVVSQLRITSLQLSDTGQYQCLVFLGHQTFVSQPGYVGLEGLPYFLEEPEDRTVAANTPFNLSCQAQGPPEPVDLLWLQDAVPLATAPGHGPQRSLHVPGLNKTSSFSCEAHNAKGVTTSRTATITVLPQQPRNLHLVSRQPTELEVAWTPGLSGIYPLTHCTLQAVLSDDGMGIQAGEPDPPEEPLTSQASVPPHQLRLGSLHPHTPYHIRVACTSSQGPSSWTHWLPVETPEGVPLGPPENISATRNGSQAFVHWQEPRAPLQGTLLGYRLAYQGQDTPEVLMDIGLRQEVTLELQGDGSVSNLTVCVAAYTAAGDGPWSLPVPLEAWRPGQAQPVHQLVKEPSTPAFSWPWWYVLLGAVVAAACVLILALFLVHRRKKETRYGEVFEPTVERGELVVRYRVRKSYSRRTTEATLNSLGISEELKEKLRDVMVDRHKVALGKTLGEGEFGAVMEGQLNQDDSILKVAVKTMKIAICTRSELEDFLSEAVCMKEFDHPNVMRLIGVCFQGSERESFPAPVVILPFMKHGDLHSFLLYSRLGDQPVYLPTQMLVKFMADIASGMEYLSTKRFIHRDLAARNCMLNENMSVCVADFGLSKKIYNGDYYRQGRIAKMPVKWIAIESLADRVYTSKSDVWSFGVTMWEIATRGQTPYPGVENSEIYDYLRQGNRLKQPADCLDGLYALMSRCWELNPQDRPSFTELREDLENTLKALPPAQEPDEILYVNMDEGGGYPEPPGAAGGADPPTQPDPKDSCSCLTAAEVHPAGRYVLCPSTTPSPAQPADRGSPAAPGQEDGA
Assay: Axl NanoBRET intracellular kinase assay (Cell Binding)
Set-up: host or cells: HEK-293
Settings: HEK-293 cells transfected with Axl-NanoLuc fusion vector; displacement of K-5 NanoBRET tracer
Summary of the method: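 In intact HEK-293 cells transiently expressing NanoLuc-tagged Axl, compounds compete with the K-5 tracer (0.35 μM, 2 h, 37 °C) after a 1 h preincubation. Readout is the 610/450 nm emission ratio.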

C[C@@H]1CCCN1C1CCc2ccc(-c3cnc4[nH]nc(-c5ccc6c(c5)O[C@@H](C)CNC6=O)c4c3)cc2CC1 (stereo partly drawn) [Example 62, (2S)-2-Methyl-8-(5-{7-[(2R)-2-methylpyrrolidin-1-yl]-6,7,8,9-tetrahydro-5H-benzo[7]annulen-2-yl}-1H-pyrazolo[3,4-b]pyridin-3-yl)-2,3,4,5-tetrahydro-1,4-benzoxazepin-5-one] and C[C@@H]1CCCN1C1CCc2ccc(-c3cnc4[nH]nc(-c5ccc6c(c5)OCCNC6=O)c4c3)cc2CC1 (stereo partly drawn) [Example 44, 8-(5-{7-[(2R)-2-Methylpyrrolidin-1-yl]-6,7,8,9-tetrahydro-5H-benzo[7]annulen-2-yl}-1H-pyrazolo[3,4-b]pyridin-3-yl)-2,3,4,5-tetrahydro-1,4-benzoxazepin-5-one] cannot be ordered by IC50: less than 100 nM for the first, less than 100 nM for the second.

Cc1cc2c(cc1-c1n[nH]c3ncc(-c4ccc5c(c4)CCC(N4CCC[C@H]4C)CC5)cc13)OCCNC2=O (stereo partly drawn) [Example 40, 7-Methyl-8-(5-{7-[(2R)-2-methylpyrrolidin-1-yl]-6,7,8,9-tetrahydro-5H-benzo[7]annulen-2-yl}-1H-pyrazolo[3,4-b]pyridin-3-yl)-2,3,4,5-tetrahydro-1,4-benzoxazepin-5-one] and Cc1cc2c(cc1-c1cnc3[nH]nc(-c4ccc5c(c4)OCCNC5=O)c3c1)CCC(N1CCC[C@H]1C)CC2 (stereo partly drawn) [Example 64, 8-(5-{3-Methyl-7-[(2R)-2-methylpyrrolidin-1-yl]-6,7,8,9-tetrahydro-5H-benzo[7]annulen-2-yl}-1H-pyrazolo[3,4-b]pyridin-3-yl)-2,3,4,5-tetrahydro-1,4-benzoxazepin-5-one] cannot be ordered by IC50: less than 100 nM for the first, less than 100 nM for the second.

O=C1NCCOc2cc(-c3n[nH]c4ncc(-c5ccc6c(c5)CCNCC6)cc34)ccc21 [Example 53, 8-(5-(2,3,4,5-Tetrahydro-1H-benzo[d]azepin-7-yl)-1H-pyrazolo[3,4-b]pyridin-3-yl)-3,4-dihydrobenzo[f][1,4]oxazepin-5(2H)-one] and O=C1NCCOc2cc(-c3n[nH]c4ncc(-c5ccc6c(c5)CCN(C5COC5)CC6)cc34)ccc21 [Example 11, 8-(5-(3-(Oxetan-3-yl)-2,3,4,5-tetrahydro-1H-benzo[d]azepin-7-yl)-1H-pyrazolo[3,4-b]pyridin-3-yl)-3,4-dihydrobenzo[f][1,4]oxazepin-5(2H)-one] fall in the same range of IC50: 100 to 1000 nM for the first, 100 to 1000 nM for the second.

First: O=C1NCCOc2cc(-c3n[nH]c4ncc(-c5ccc6c(c5)CCN(C5CCCC5)C6)cc34)ccc21 [Example 9, 8-(5-(2-Cyclopentyl-1,2,3,4-tetrahydroisoquinolin-6-yl)-1H-pyrazolo[3,4-b]pyridin-3-yl)-3,4-dihydrobenzo[f][1,4]oxazepin-5(2H)-one]
Second: O=C1NCCOc2cc(-c3n[nH]c4ncc(-c5ccc6c(c5)CCN(C5CC5)C6)cc34)ccc21 [Example 21, 8-(5-(2-Cyclopropyl-1,2,3,4-tetrahydroisoquinolin-6-yl)-1H-pyrazolo[3,4-b]pyridin-3-yl)-3,4-dihydrobenzo[f][1,4]oxazepin-5(2H)-one]
The IC50 of the first is lower: less than 100 nM for the first, 100 to 1000 nM for the second.

First: CC1(O)CCCOc2cc(-c3n[nH]c4ncc(-c5ccc6c(c5)CCN(C5CCCC5)CC6)cc34)ccc21 (centres unmarked) [Example 28, (8-[5-(3-Cyclopentyl-2,3,4,5-tetrahydro-1H-3-benzazepin-7-yl)-1H-pyrazolo[3,4-b]pyridin-3-yl]-5-methyl-2,3,4,5-tetrahydro-1-benzoxepin-5-ol)]
Second: CC1(O)CCc2cc(-c3n[nH]c4ncc(-c5ccc6c(c5)CC[C@@H](N5CCCC5)CC6)cc34)ccc21 (stereo partly drawn) [Example 30, 1-Methyl-5-{5-[(7S)-7-(pyrrolidin-1-yl)-6,7,8,9-tetrahydro-5H-benzo[7]annulen-2-yl]-1H-pyrazolo[3,4-b]pyridin-3-yl}-2,3-dihydro-1H-inden-1-ol]
The IC50 of the first is higher: 100 to 1000 nM for the first, less than 100 nM for the second. The second is the more potent here.

O=C1NCCOc2cc(-c3n[nH]c4ncc(-c5ccc6c(c5)CC[C@@H](N5CCCC5)CC6)cc34)ccc21 (single isomer, unassigned) [Example 57] and O=C1NCCOc2cc(-c3n[nH]c4ncc(-c5ccc6c(c5)CCC(N5CCCC5)C6)cc34)ccc21 (centres unmarked) [Example 2, 8-{5-[6-(Pyrrolidin-1-yl)-5,6,7,8-tetrahydronaphthalen-2-yl]-1H-pyrazolo[3,4-b]pyridin-3-yl}-2,3,4,5-tetrahydro-1,4-benzoxazepin-5-one] cannot be ordered by IC50: less than 100 nM for the first, less than 100 nM for the second.

CC1(C)NS(=O)(=O)c2cc(-c3n[nH]c4ncc(-c5ccc6c(c5)CCC(N5CCCC5)CC6)cc34)ccc21 (centres unmarked) [Example 32, 3,3-Dimethyl-6-{5-[7-(pyrrolidin-1-yl)-6,7,8,9-tetrahydro-5H-benzo[7]annulen-2-yl]-1H-pyrazolo[3,4-b]pyridin-3-yl}-2,3-dihydro-1λ^6,2-benzothiazole-1,1-dione] and CC1(C)NS(=O)(=O)c2cc(-c3n[nH]c4ncc(-c5ccc6c(c5)CCC(N5CCC[C@@H]5CO)CC6)cc34)ccc21 (stereo partly drawn) [Example 34, 6-(5-{7-[(2R)-2-(Hydroxymethyl)pyrrolidin-1-yl]-6,7,8,9-tetrahydro-5H-benzo[7]annulen-2-yl}-1H-pyrazolo[3,4-b]pyridin-3-yl)-3,3-dimethyl-2,3-dihydro-1λ^6,2-benzothiazole-1,1-dione] cannot be ordered by IC50: less than 100 nM for the first, less than 100 nM for the second.

O=C1NCCOc2cc(-c3n[nH]c4ncc(-c5ccc6c(c5)CCC(N[C@H]5CCOC5)CC6)cc34)ccc21 (stereo partly drawn) [Example 45, 8-[5-(7-{[(3S)—Oxolan-3-yl]amino}-6,7,8,9-tetrahydro-5H-benzo[7]annulen-2-yl)-1H-pyrazolo[3,4-b]pyridin-3-yl]-2,3,4,5-tetrahydro-1,4-benzoxazepin-5-one] and O=C1NCCOc2cc(-c3n[nH]c4ncc(-c5ccc6c(c5)CCC(N5CCC[C@H]5CO)CC6)cc34)ccc21 (stereo partly drawn) [Example 50, 8-(5-{7-[(2S)-2-(Hydroxymethyl)pyrrolidin-1-yl]-6,7,8,9-tetrahydro-5H-benzo[7]annulen-2-yl}-1H-pyrazolo[3,4-b]pyridin-3-yl)-2,3,4,5-tetrahydro-1,4-benzoxazepin-5-one] cannot be ordered by IC50: less than 100 nM for the first, less than 100 nM for the second.

C[C@@H]1CCCN1C1CCc2ccc(-c3cnc4[nH]nc(-c5cc(F)c6c(c5)OCCNC6=O)c4c3)cc2CC1 (stereo partly drawn) [Example 6, 6-Fluoro-8-(5-{7-[(2R)-2-methylpyrrolidin-1-yl]-6,7,8,9-tetrahydro-5H-benzo[7]annulen-2-yl}-1H-pyrazolo[3,4-b]pyridin-3-yl)-2,3,4,5-tetrahydro-1,4-benzoxazepin-5-one] and C[C@@H]1CCCN1C1CCc2ccc(-c3cnc4[nH]nc(-c5ccc6c(c5)OCCC6(C)O)c4c3)cc2CC1 (stereo partly drawn) [Example 29, 4-Methyl-7-(5-{7-[(2R)-2-Methylpyrrolidin-1-yl]-6,7,8,9-tetrahydro-5H-benzo[7]annulen-2-yl}-1H-pyrazolo[3,4-b]pyridin-3-yl)-3,4-dihydro-2H-1-benzopyran-4-ol] cannot be ordered by IC50: less than 100 nM for the first, less than 100 nM for the second.

COCCN1CCc2cc(-c3cnc4[nH]nc(-c5ccc6c(c5)OCCNC6=O)c4c3)ccc2C1 [Example 13, 8-(5-(2-(2-Methoxyethyl)-1,2,3,4-tetrahydroisoquinolin-6-yl)-1H-pyrazolo[3,4-b]pyridin-3-yl)-3,4-dihydrobenzo[f][1,4]oxazepin-5(2H)-one] and O=C1NCCOc2cc(-c3n[nH]c4ncc(-c5ccc6c(c5)CCN(C5COC5)C6)cc34)ccc21 [Example 12, 8-(5-(2-(Oxetan-3-yl)-1,2,3,4-tetrahydroisoquinolin-6-yl)-1H-pyrazolo[3,4-b]pyridin-3-yl)-3,4-dihydrobenzo[f][1,4]oxazepin-5(2H)-one] fall in the same range of IC50: 100 to 1000 nM for the first, 100 to 1000 nM for the second.
